“Also recorded” adds a separate entry of the source.
Tested on: pseudovirus carrying the Spike protein of SARS-CoV-2
Assay type: cell-based

## CC(C)C[C@H](N[C@@H](Cc1cncn1Cc1cc(Cl)cc(Cl)c1)C(=O)O)C(=O)O [MLN-4760]
  inhibition of pseudovirus infection (attachment and entry): No inhibition of viral infection; also recorded: no ability to block the entrance to the pseudovirus

## CN1CCN(c2ccc(CNC(=O)c3ccno3)cc2)CC1 [SSAA09E2]
  inhibition of pseudovirus infection (attachment and entry): dose-dependent inhibition of pseudovirus infection; also recorded: effective at blocking infection

— patent US20220008373A1 (priority 2020, published 2022)
